Read-outs that look alike come from different tables or passages of the source.
Columns and labels:
human GPR119 = molecular target: T1, human GPR119 (Homo sapiens, UniProt Q8TDV5); test: Intracellular cAMP increase in human GPR119 introduced cells (Pharmacological Experiments 1 and 2); assay type: cell-based; conditions: for GPR119 agonist effect: result in words, refers to Tables 12 and 13
T1 sequence (Q8TDV5 1-335): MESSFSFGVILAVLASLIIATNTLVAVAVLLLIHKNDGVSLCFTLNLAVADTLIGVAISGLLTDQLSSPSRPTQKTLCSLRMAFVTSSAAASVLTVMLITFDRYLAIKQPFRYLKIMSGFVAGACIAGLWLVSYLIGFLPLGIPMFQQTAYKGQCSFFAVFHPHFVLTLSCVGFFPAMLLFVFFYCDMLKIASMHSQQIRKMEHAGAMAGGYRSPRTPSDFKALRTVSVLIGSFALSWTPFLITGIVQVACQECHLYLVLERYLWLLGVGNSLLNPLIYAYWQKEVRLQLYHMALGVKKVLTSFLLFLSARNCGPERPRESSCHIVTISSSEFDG
Excerpt: The GPR119 agonist effect is studied by measuring the effect of an analyte on increase of intracellular amount of cAMP in human GPR119 introduced cells. The testing method is described below.
Human GPR119 gene (NM 178471) is purchased from ATCC (ATCC No. 10807349), and is amplyfied according to PCR to form BamHI site at 5′ side and Apa I site at 3′ side. The forward side primer is […] (sequence No. 1), and the reverse side primer is […] (sequence No. 2). The PCR conditions are described below.
(§1) The double-stranded DNA is thermally denatured using a DNA polymerase (KOD-Plus-Ver. 2; TOYOBO #KOD-211) at 98° C. for 10 seconds in one cycle. The denatured single-stranded DNA is annealed with the primers at 55° C. for 30 seconds. The DNA is subjected to an extension reaction at 68° C. for 1 minute and 15 seconds. The above-mentioned steps are repeated in 35 cycles. The PCR product is inserted into pcDNA5/FRT/TO (Invitrogen #V6520-20) plasmid. Flp-in T-Rex-293 cells (Invitorogen #R78007) are transfected with the obtained plasmid. The method of transfection is conducted in accordance with the protocol of the product.
The stable cell line expressing human GPR119 prepared in the above-mentioned method is plated on a 96-well plate at the concentration of 2,500 cells/well using Dulbecco's Modified Eagle Medium (DMEM) containing 10% fetal bovine serum (FBS). Twenty-four hours after plating, tetracyclin (Invitrogen #Q10019) is added at the final concentration of 20 ng/mL to induce hGPR119 gene expression. Twenty-four hours after, the medium is removed, and the cells are stimulated with an assay buffer (0.5 mM IBMX PBS(−)) containing the test compound at 37° C. for 30 minutes. The amount of the intracellular cAMP is measured using a commercially available kit (HitHunter™ cAMP XS+ Assay: GE Healthcare #90007503) and a reader (FLUOstar Optima: BMG LABTECH). The test compound is dissolved in 100% DMSO, and added at the final concentration of 1%.
Human GPR119 gene (NM 178471) was purchased from ATCC (ATCC No. 10807349), and is amplyfied according to PCR to form BamHI site at 5′ side and Apa I site at 3′ side. The primers were […] (sequence No. 1) and […] (sequence No. 2). The PCR conditions are described below.
as §1, with “was” for “is”, “were” for “are”
The stable cell line expressing human GPR119 prepared in the above-mentioned method was plated on a 96-well plate at the concentration of 2,500 cells/well using Dulbecco's Modified Eagle Medium (DMEM) containing 10% fetal bovine serum (FBS). Twenty-four hours after plating, tetracyclin (Invitrogen #Q10019) was added at the final concentration of 20 ng/mL to induce hGPR119 gene expression. Twenty-four hours after, the medium was removed, and the cells were stimulated with an assay buffer (0.5 mM IBMX PBS (−)) containing the test compound at 37° C. for 30 minutes. The amount of the intracellular cAMP was measured using a commercially available kit (HitHunter™ cAMP XS+ Assay: GE Healthcare #90007503) and a reader (FLUOstar Optima: BMG LABTECH). The test compound was dissolved in 100% DMSO, and added at the final concentration of 1%.
The examination was performed by the method similar to Example 61 Pharmacological experiment 1-(1), 1-(2).

normal mice = test: Oral glucose tolerance test in normal mice (Pharmacological Experiment 3); assay type: in vivo
Description: Oral glucose tolerance is tested in normal mice.
In this experiment, the inhibitory effect of a test compound on glycemic excursions is examined after glucose administration in normal mice. The test methods are described below.
Male 9-week-old ICR mice, habituated to the experimental environment for two weeks, are fasted for 18 hours and used to this experiment. Mice are orally administered the analyte or vehicle (polyethylene glycol 400:ethanol:Tween 80=8:1:1). After 30 minutes, they were orally given glucose at the dose of 3 g/kg.
Blood is collected at just before the analyte or vehicle administration (−30 minutes), immediately before glucose challenge (0 minute), 20 minutes, 40 minutes, 60 minutes, and 120 minutes after glucose ingestion to determine blood glucose levels.
Inhibition rate (%) of the test compound versus vehicle in areas under the glycemic excursion curve between 0 minute and 120 minutes after glucose challenge is determined. […]
Blood was collected at just before the test compound or vehicle administration (−30 min), immediately before glucose challenge (0 min), 20 min, 40 min, 60 min and 120 min after glucose ingestion and then blood glucose levels were determined.
Inhibition rate (%) of the test compound versus vehicle in areas under the glycemic excursion curve between 0 and 120 min after glucose challenge was determined.

[1] = Table 12, Flp-in T-Rex-293 cells stably expressing hGPR119, intracellular cAMP, 37° C. for 30 minutes, read-out: EC50
[2] = Table 13, Pharmacological experiment 2, method similar to Example 61, read-out: EC50

| Structure (SMILES) | EC50 (human GPR119; [1]) | GPR119 agonist effect (human GPR119) | melting point | EC50 (human GPR119; [2]) | also measured |
| --- | --- | --- | --- | --- | --- |
| CC(C)(C)OC(=O)N1CCC(c2cnc(Cn3ccc4cc(S(C)(=O)=O)ccc43)cn2)CC1 [Example 9, tert-Butyl 4-[5-(5-methanesulfonylindol-1-ylmethyl)pyrazin-2-yl]piperidine-1-carboxylate] | 13.8 nM | excellent GPR119 agonist effect | – | – | Inhibition rate (%) (normal mice; 1 mg/kg oral, male ICR mice, area under glycemic excursion curve 0-120 min after glucose 3 g/kg, versus vehicle): 31.1%; inhibitory effect on glycemic excursions (normal mice; result in words, refers to Table 14): excellent inhibitory effect on glycemic excursions |
| CC(C)(C)OC(=O)N1CC=C(c2cnc(COc3ccc(-n4cncn4)cc3)cn2)CC1 [Example 13, tert-Butyl 4-[5-[4-(1,2,4-triazol-1-yl)phenoxymethyl]pyrazin-2-yl]-3,6-dihydro-2H-pyridine-1-carboxylate] | 130 nM | – | 152 to 154 °C | – | – |
| CC(C)(C)OC(=O)N1CC=C(c2cnc(COc3ccc(S(C)(=O)=O)c(F)c3F)cn2)CC1 [Example 18, tert-Butyl 4-[5-(2,3-difluoro-4-methanesulfonylphenoxymethyl)pyrazin-2-yl]-3,6-dihydro-2H-pyridine-1-carboxylate] | 110 nM | – | 176 to 179 °C | – | – |
| CC(C)OC(=O)N1CCC(c2cnc(Cn3ccc4cc(-n5cnnn5)cc(F)c43)nc2)CC1 [Example 50, Isopropyl 4-[2-[7-fluoro-5-(tetrazol-1-yl)indol-1-ylmethyl]pyrimidin-5-yl]piperidine-1-carboxylate] | – | – | – | – | EC50 (human GPR119): 17.4 nM |
| CS(=O)(=O)c1cc(F)c2c(ccn2Cc2cnc(C3CCN(c4ncc(Br)cn4)CC3)cn2)c1 [Example 51, 5-Bromo-2-[4-[5-(7-fluoro-5-methanesulfonylindol-1-ylmethyl)pyrazin-2-yl]piperidine-1-yl]pyrimidine] | – | excellent GPR119 agonist effect | – | 5.4 nM | – |
| Fc1cc(-n2cnnn2)cc2ccn(Cc3cnc(C4CCN(c5ncc(Br)cn5)CC4)cn3)c12 [Example 54, 5-Bromo-2-[4-[5-[7-fluoro-5-(tetrazol-1-yl)indol-1-ylmethyl]pyrazin-2-yl]piperidin-1-yl]pyrimidine] | – | – | – | 14.2 nM | – |
